# According to PMC9693223 (Molecules, 2022):
# What was measured:
# [1] = test system: T. cruzi trypomastigotes; test: Effect on cell derived trypomastigotes (percent motile parasites); assay type: cell-based; settings: Trypanosoma cruzi, 24 h incubation, percent of motile parasites
# Method: (§1) Trypomastigotes were obtained by infecting CHO-K1 cells. CHO-K1 cells were cultivated in RPMI-1640 medium supplemented with 10% heat-inactivated fetal calf serum (FCS), 0.15% (w/v) […], 100 µg mL^−1 penicillin and 130 µg mL^−1 streptomycin and incubated at 37 °C in a humidified atmosphere containing 5% CO2. CHO-K1 cells were initially incubated with metacyclic trypomastigotes obtained by in vitro differentiation of epimastigotes as previously described (multiplicity of infection: 50 parasites per cell) for 4 h. After washing out the non-internalized parasites, the cells were incubated overnight in RPMI medium supplemented with 10% FCS at 37 °C and then maintained at 33 °C in a humidified atmosphere containing 5% CO2 as previously reported. Infected cells were maintained at 33 °C in the presence of 10% FCS. Infected cell-derived trypomastigotes started to burst into the culture medium at the 5th day post-infection. Trypomastigotes collected at day 5 or 6 post infection were used for the viability assays.
# To measure the effect of compounds, cell derived trypomastigotes were collected from the extracellular medium at the fifth or sixth day after infection and counted in a Neubauer chamber. […] After incubation the trypanocidal effect was assessed by counting the percent of motile parasites in a Neubauer chamber. […]
# [2] = test system: L. mexicana; design: method as in PMID 28453984; settings: ref [36]; read-out: EC50 against L. mexicana; cited from earlier work
# [3] = test system: bloodstream form T. brucei; design: method as in PMID 23188714, PMID 23505454; settings: ref [47],[54]; read-out: EC50 against bloodstream form T. brucei; cited from earlier work
# [4] = test system: L. mexicana Cas9^ΔNT1 promastigotes; test: Alamar blue drug sensitivity assay, L. mexicana Cas9^ΔNT1 promastigotes; assay type: cell-based, Leishmania mexicana; settings: EC50 Cas9^ΔNT1 relative to L. mexicana Cas9
# Text: (§2) We used L. mexicana promastigotes of the Cas9 strain developed by Beneke at al. to generate the ΔNT1 strain, and from there the Cas9^ΔNT1+TcrNT2 (see below); The original Cas9 strain was generously donated by Prof. Eva Gluenz (University of Bern, Switzerland). All strains in standard HOMEM (GIBCO, Life Technologies, Paisley, UK) supplemented with 10% heat-inactivated fetal bovine serum (FBS; PAA Laboratories, Linz, Austria) and 1% of a penicillin–streptomycin solution (10,000 U mL^−1 each; Life Technologies) at 25 °C, as described.
# (§3) The Alamar blue assay (resazurin sodium salt) was used to determine the drug sensitivity of the L. mexicana promastigotes in vitro. The assay is based on the reduction of resazurin sodium salt (blue and non-fluorescent) to resorufin (pink color and fluorescent) by live cells. HOMEM medium with 10% FBS (100 μL) was added to all wells of a white 96-well plate apart from the first well. 200 μL of a known concentration of test compounds was diluted in HOMEM medium and placed in the first well. Compounds were tested in one plate and every compound was diluted over two rows (23 concentrations), leaving the last well of every dilution as a negative control having 100 μL HOMEM medium. Next, 100 μL of L. mexicana culture at a density of 2 × 10^6 cells mL^−1 was added into every well in the plate and incubated for 72 h at a temperature of 25 °C after which resazurin sodium salt (Sigma) (20 μL of a solution of 12.5 mg in 100 mL PBS) was added and the plate was incubated under the same conditions for a further 48 h. Fluorescence was measured in a FLUOstar OPTIMA plate reader (BMG Labtech, Germany), at a wavelength of 544 nm for excitation and 620 nm for emission. The EC50 values and fluorescence data were determined and plotted by the GraphPad Prism 8 Software using an equation for a sigmoid curve with variable slope. Pentamidine was used as positive control and every experiment was performed 3–4 times independently.
# [5] = test system: T. cruzi epimastigotes (CL Brener strain); test: In vitro inhibition of proliferation of T. cruzi epimastigotes; assay type: cell-based, Trypanosoma cruzi; settings: Trypanosoma cruzi; cell densities at the 5th day of proliferation, four independent experiments
# Method: as §1
# The density of exponentially proliferating epimastigotes for each assay was adjusted to 2.0 × 10^6 parasites mL^−1, transferred into 96-well plates (200 μL/well) and incubated with different concentrations of the compounds 5-F-2′-deoxyuridine, 5-F-uracil, 5-F-uridine or benznidazole. A combination of 60 μM rotenone and 0.5 μM antimycin (RA) was used as a positive control for proliferation inhibition (positive control), as previously described. […] The epimastigote proliferation was measured as previously reported, by reading the optical density (OD) at 620 nm every 24 h for 9 days (which collects readings through the exponential and stationary phases). […] The half-maximal inhibitory concentrations (IC50) were determined during the exponential growth phase (fifth day) by adjusting a sigmoidal dose-response function to experimentally obtained data using GraphPad Prism 8. The compounds were assessed in quadruplicate in each experiment, and the results correspond to four independent experiments.
# [6] = test system: L. mexicana Cas9^ΔNT1+TcrNT2 promastigotes; test: Alamar blue drug sensitivity assay, L. mexicana Cas9^ΔNT1+TcrNT2 promastigotes; assay type: cell-based, Leishmania mexicana; settings: Cas9^ΔNT1+TcrNT2 in comparison to L. mexicana Cas9^ΔNT1
# Text: as §2, §3
# [7] = test system: L. mexicana Cas9 promastigotes; test: Alamar blue drug sensitivity assay, L. mexicana Cas9 promastigotes; assay type: cell-based, Leishmania mexicana; settings: Leishmania mexicana, 120 h, 72 h + 48 h resazurin, at least 3 independent determinations, read-out: EC50 (µM) AVG ± SEM, Cas9
# In short: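 Promastigotes cultured in HOMEM with 10% FBS at 25 °C were added as a 2 × 10^6 cells mL^−1 culture to 23-point compound dilutions. After 72 h at 25 °C, resazurin was added for a further 48 h, and fluorescence was read at ex 544/em 620 nm. EC50 came from a variable-slope sigmoid fit (3–4 independent experiments).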
structure (smiles),measurement,setting,value
"O=c1[nH]c(=O)n([C@H]2C[C@H](O)[C@@H](CO)O2)cc1F [5-F-2′-dUrd, 5-F-2′-deoxyuridine]",inhibition at 31 µM,[1],~30%
same,EC50,[2],1.7 µM
same,EC50,[3],5.2 µM
same,RF vs. Cas9 (resistance factor),[4],26.6
same,IC50,[5],16.8 ± 0.01 µM
same,RF vs. ΔNT1 (resistance factor),[6],14.8
same,EC50,[7],2.19 ± 0.11 µM
